From ChEMBL document CHEMBL1201862, “PubChem BioAssay data set” (2004)
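Cultured in 96-well plates, cells were exposed to test compound for 48 hours across five concentrations. Abbreviation: GI50, concentration required for 50% inhibition of growth.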 Calls of active or inactive are those of the source. Cut-off read from the data, not from the text of the source: active = GI50 up to about 1.1 µM and inactive = higher.

What was measured:
Test in all cases: NCI tumour cell line growth inhibition, 48 h
[1] = test system: SK-MEL-2
[2] = test system: OVCAR-4
[3] = test system: 786-0
[4] = test system: SK-MEL-5
[5] = test system: SF-539
[6] = test system: NCI-H460
[7] = test system: HOP-92
[8] = test system: A549
[9] = test system: SW-620
[10] = test system: OVCAR-5
[11] = test system: KM-20L2
[12] = test system: OVCAR-8
[13] = test system: UO-31
[14] = test system: Hs-578T
[15] = test system: PC-3
[16] = test system: BT-549
[17] = test system: T47D
[18] = test system: MCF7
[19] = test system: MDA-MB-435

Row | SMILES | GI50 [1] | GI50 [2] | GI50 [3] | GI50 [4] | GI50 [5] | GI50 [6] | GI50 [7] | GI50 [8] | GI50 [9] | GI50 [10] | GI50 [11] | GI50 [12] | GI50 [13] | GI50 [14] | GI50 [15] | GI50 [16] | GI50 [17] | GI50 [18] | GI50 [19]
1 | C[C@H](C(=O)C12CC3CC(CC(C3)C1)C2)[C@H](O)c1ccccc1 | 19 µM (inactive) | 44 µM (inactive) | 22.8 µM (inactive) | 17.6 µM (inactive) | 33.3 µM (inactive) | 35.2 µM (inactive) | 21.9 µM (inactive) | 40.7 µM (inactive) | 47.9 µM (inactive) | 17.5 µM (inactive) | 20.8 µM (inactive) | 33.5 µM (inactive) | 29 µM (inactive) |  |  |  |  |  | 
2 | O=C1C=CC(=O)c2c1c1c(c3c2C2c4ccccc4C3c3ccccc32)C2c3ccccc3C1c1ccccc12 | 1.89 µM (inactive) | 2.04 µM (inactive) | 1.45 µM (inactive) | 3.3 µM (inactive) | 5.15 µM (inactive) | 13.2 µM (inactive) | 1.08 µM (active) | 8.69 µM (inactive) | 0.914 µM (active) | 6.55 µM (inactive) | 4.46 µM (inactive) | 1.53 µM (inactive) | 2.04 µM (inactive) | 4.29 µM (inactive) | 1.74 µM (inactive) | 3.26 µM (inactive) | 1.41 µM (inactive) | 1.27 µM (inactive) | 1.75 µM (inactive)
3 | CC1=C(C(=O)Nc2ccccc2C)C(/C=C/c2ccccc2)C(C(=O)Nc2ccccc2C)=C(C)N1 | > 100 µM (inactive) | 96.4 µM (inactive) | > 100 µM (inactive) | > 100 µM (inactive) | > 100 µM (inactive) | > 100 µM (inactive) | 80 µM (inactive) | 99.3 µM (inactive) | > 100 µM (inactive) | > 100 µM (inactive) | > 100 µM (inactive) | > 100 µM (inactive) | 34.8 µM (inactive) |  |  |  |  |  | 
4 | O=C(/C=C\c1ccc(Cl)c(Cl)c1)c1ccc(Cl)cc1Cl | 19.7 µM (inactive) | 24.4 µM (inactive) | 17.4 µM (inactive) | 14.9 µM (inactive) | 20 µM (inactive) | 23.3 µM (inactive) | > 10 µM (inactive) | 22.6 µM (inactive) | 2.69 µM (inactive) | > 10 µM (inactive) | 2.69 µM (inactive) | 19.1 µM (inactive) | > 10 µM (inactive) |  |  |  |  |  | 
5 | Cn1c2c(c3ccccc31)CCN(CCCCN1CCc3c(n(C)c4ccccc34)C1=O)C2 | > 100 µM (inactive) | 36.7 µM (inactive) | > 100 µM (inactive) | > 100 µM (inactive) | 47.5 µM (inactive) | > 100 µM (inactive) | > 100 µM (inactive) | > 100 µM (inactive) | > 100 µM (inactive) | > 100 µM (inactive) | > 100 µM (inactive) | > 100 µM (inactive) | > 100 µM (inactive) |  |  |  |  |  | 
6 | CC(=O)OC1CCn2nnc(COC(=O)NC(C)C)c21 (configuration not stated) | > 100 µM (inactive) | > 100 µM (inactive) | > 100 µM (inactive) | > 100 µM (inactive) | > 100 µM (inactive) | > 100 µM (inactive) | > 100 µM (inactive) | > 100 µM (inactive) | > 100 µM (inactive) | > 100 µM (inactive) | > 100 µM (inactive) | > 100 µM (inactive) | > 100 µM (inactive) |  |  |  |  |  | 
7 | CCOC(=O)C(=O)Nc1ccccc1C(F)(F)F | > 100 µM (inactive) | > 100 µM (inactive) | > 100 µM (inactive) |  | > 100 µM (inactive) | > 100 µM (inactive) | > 100 µM (inactive) | > 100 µM (inactive) | > 100 µM (inactive) | > 100 µM (inactive) | > 100 µM (inactive) | > 100 µM (inactive) | > 100 µM (inactive) |  |  |  |  |  | 
8 | O=C(O)[C@@H](NS(=O)(=O)c1ccc([N+](=O)[O-])cc1)c1ccccc1 | > 100 µM (inactive) | > 100 µM (inactive) | > 100 µM (inactive) | > 100 µM (inactive) | > 100 µM (inactive) | > 100 µM (inactive) | > 100 µM (inactive) | > 100 µM (inactive) | > 100 µM (inactive) | > 100 µM (inactive) | > 100 µM (inactive) | > 100 µM (inactive) | > 100 µM (inactive) |  |  |  |  |  | 
9 | CN1CCN2c3ccccc3CC(C#N)(C#N)C2C1 (configuration not stated) | > 100 µM (inactive) | > 100 µM (inactive) | > 100 µM (inactive) | > 100 µM (inactive) | > 100 µM (inactive) | > 100 µM (inactive) | > 100 µM (inactive) | > 100 µM (inactive) | > 100 µM (inactive) | > 100 µM (inactive) | > 100 µM (inactive) | > 100 µM (inactive) | > 100 µM (inactive) |  |  |  |  |  | 
10 | CCOC(=O)C1S/C(=N\c2ccc(OC)c(OC)c2)N=C1C (configuration not stated) | 29.8 µM (inactive) | 40.2 µM (inactive) | 29.2 µM (inactive) | 18.4 µM (inactive) | 53.2 µM (inactive) | 43.5 µM (inactive) | 37.2 µM (inactive) | 34.8 µM (inactive) | 42.7 µM (inactive) | 40.2 µM (inactive) | 27 µM (inactive) | 36.6 µM (inactive) | 34.6 µM (inactive) |  |  |  |  |  | 
11 | CC(C)(C)N1CC2(CCCCC2)C1=O | > 100 µM (inactive) | > 100 µM (inactive) | > 100 µM (inactive) | > 100 µM (inactive) | > 100 µM (inactive) | > 100 µM (inactive) | > 100 µM (inactive) | > 100 µM (inactive) | > 100 µM (inactive) | > 100 µM (inactive) | > 100 µM (inactive) | > 100 µM (inactive) | > 100 µM (inactive) |  |  |  |  |  | 
12 | COC(=O)c1ccc(NCc2cc(O)ccc2O)cc1 | 16 µM (inactive) | 11.5 µM (inactive) | 9.4 µM (inactive) | 9.71 µM (inactive) | 5.46 µM (inactive) | 23.6 µM (inactive) | 13.3 µM (inactive) | 14.5 µM (inactive) | 9.18 µM (inactive) | 15 µM (inactive) | 28.4 µM (inactive) | 11.6 µM (inactive) | 8 µM (inactive) | 3.93 µM (inactive) | 4.39 µM (inactive) | 1.04 µM (active) | 1.65 µM (inactive) | 6.21 µM (inactive) | 4.63 µM (inactive)
13 | COc1ccc2nccc(C3OC(=O)N4CCC(=O)CC34)c2c1 (configuration not stated) | > 100 µM (inactive) | > 100 µM (inactive) | > 100 µM (inactive) | > 100 µM (inactive) | > 100 µM (inactive) | > 100 µM (inactive) | 67.1 µM (inactive) | > 100 µM (inactive) | > 100 µM (inactive) | > 100 µM (inactive) | > 100 µM (inactive) | > 100 µM (inactive) | > 100 µM (inactive) |  |  |  |  |  | 
14 | C=C1CC2OC2(C(=O)O[C@H]2CCC3[C@@H]4CCC5=CC(=O)CC[C@]5(C)C4CC[C@@]32C)C1=O (some centres not stated) | 6.07 µM (inactive) | 6.34 µM (inactive) | 2.04 µM (inactive) | 11.8 µM (inactive) | 9.33 µM (inactive) | 11 µM (inactive) | 9.75 µM (inactive) | 21.3 µM (inactive) | 3.4 µM (inactive) | 19.6 µM (inactive) | 7.57 µM (inactive) | 7.59 µM (inactive) | 8.38 µM (inactive) | 16.8 µM (inactive) |  | 15.3 µM (inactive) | 3.3 µM (inactive) |  | 12.7 µM (inactive)
15 | CC[P+](C)(C)CC | 82.8 µM (inactive) | > 100 µM (inactive) | > 100 µM (inactive) | > 100 µM (inactive) | > 100 µM (inactive) | > 100 µM (inactive) | > 100 µM (inactive) | > 100 µM (inactive) | > 100 µM (inactive) | > 100 µM (inactive) | > 100 µM (inactive) | > 100 µM (inactive) | > 100 µM (inactive) |  |  |  |  |  | 
16 | C[C@H](NC(=O)n1c2ccccc2c2ccccc21)C(=O)O | > 100 µM (inactive) |  | > 100 µM (inactive) | > 100 µM (inactive) | > 100 µM (inactive) | > 100 µM (inactive) | > 100 µM (inactive) | > 100 µM (inactive) | > 100 µM (inactive) | > 100 µM (inactive) | > 100 µM (inactive) | > 100 µM (inactive) |  |  |  |  |  |  | 
17 | CC12CC(Sc3ccccc3N1)c1ccccc1O2 (configuration not stated) | 12.8 µM (inactive) | 17 µM (inactive) | 17.7 µM (inactive) | 14.8 µM (inactive) | 17.5 µM (inactive) | 16.6 µM (inactive) | 18.7 µM (inactive) | 18.8 µM (inactive) | 17.7 µM (inactive) | 19 µM (inactive) | 18.4 µM (inactive) | 17.9 µM (inactive) | 14.1 µM (inactive) |  |  |  |  |  | 
18 | O=C(O)COc1ccc2c3c1C(=O)CCC3CO2 (configuration not stated) | > 100 µM (inactive) | > 100 µM (inactive) | > 100 µM (inactive) | > 100 µM (inactive) | > 100 µM (inactive) | > 100 µM (inactive) | > 100 µM (inactive) | > 100 µM (inactive) | > 100 µM (inactive) | > 100 µM (inactive) | > 100 µM (inactive) | > 100 µM (inactive) | > 100 µM (inactive) |  |  |  |  |  | 
19 | O=C(C(=O)c1ccc(Cc2ccc(C(=O)C(=O)c3ccccc3)cc2)cc1)c1ccccc1 | > 100 µM (inactive) | > 100 µM (inactive) | > 100 µM (inactive) | > 100 µM (inactive) | > 100 µM (inactive) | > 100 µM (inactive) | > 100 µM (inactive) | > 100 µM (inactive) | > 100 µM (inactive) | > 100 µM (inactive) | > 100 µM (inactive) | > 100 µM (inactive) | > 100 µM (inactive) |  |  |  |  |  | 
20 | CC(=O)O[C@H]1CC[C@@]2(C)C(CC[C@]3(C)C2CC[C@]2(C)Oc4c(C)cc(O)cc4C[C@@H]23)C1(C)C (some centres not stated) | 7.52 µM (inactive) | 7.64 µM (inactive) | 1.99 µM (inactive) | 5.87 µM (inactive) |  | 4.11 µM (inactive) | 6.85 µM (inactive) | 5.22 µM (inactive) | 1.88 µM (inactive) | 10.9 µM (inactive) | 5.5 µM (inactive) | 8.93 µM (inactive) | 8.75 µM (inactive) |  |  |  |  |  | 
